# Assay results reported in ChEMBL document CHEMBL5036357, “2,3-Difunctionalized Benzo[b]thiophene Scaffolds Possessing Potent Antiangiogenic Properties” (J Med Chem, 2022).
# The source made the active and inactive calls. The calls are words filed in the database; no cut-off is given here.
# What was measured:
# HUVEC [1] = assay: Anti-angiogenesis activity against HUVEC cells assessed as tubule formation at 10 uM incubated for 6 hrs by inverted fluorescence microscopic analysis relative to control; assay type: functional, Homo sapiens
# HUVEC [2] = assay: Anti-angiogenesis activity against HUVEC cells assessed as tubule formation at 250 nM incubated for 6 hrs by inverted fluorescence microscopic analysis relative to control; assay type: functional, Homo sapiens
# HUVEC [3] = assay: Anti-angiogenesis activity against HUVEC cells assessed as reduction in tubule formation at 50 nM incubated for 6 hrs by inverted fluorescence microscopic analysis relative to control; assay type: functional, Homo sapiens; parameters: scale not given: the % may be the effect or the level left
# Mus musculus [4] = species: Mus musculus; assay: Antiangiogenic activity in BALB/c mouse assessed as reduction in neovascularization by measuring reduction in hemoglobin concentration at 2 uM by matrigel plug assay; assay type: functional, organism-based
# Mus musculus [5] = species: Mus musculus; assay: Antiangiogenic activity in BALB/c mouse assessed as assessed as reduction in CD31-positive microvessel density in ear tissue at 2 uM measured after 6 days by fluorescence microscopic analysis; assay type: functional, organism-based; details: time 6.0 day
# HUVEC [6] = assay: Induction of F-actin depolymerization in HUVEC assessed as loss of F-actin continuity at 250 nM incubated for 6 hrs by phalloidin staining based confocal microscopic analysis; assay type: tissue-based; details: Homo sapiens
# [7] = Stability in simulated intestinal fluid at pH 6.8 assessed as parent compound remaining after 2 hrs; assay type: ADME; details: read-out: Stability
# [8] = Stability in simulated gastric fluid at pH 1.2 assessed as parent compound remaining after 2 hrs; assay type: ADME; details: read-out: Stability
# [9] = Tmax in Sprague-Dawley rat at 25 mg/kg, IM measured up to 48 hrs; assay type: ADME, organism-based; details: in vivo
# HUVEC [10] = assay: Inhibition of tube formation in HUVEC measured up to 12 hrs by calcein-AM staining based fluorescence microscopic analysis; assay type: functional, cell-based; details: Homo sapiens, dose 250-10000 nM, time hrs <=12
# [11] = Apparent volume of distribution in Sprague-Dawley rat at 25 mg/kg, IM measured up to 48 hrs; assay type: ADME, organism-based; details: in vivo
# [12] = Stability in rat plasma assessed as compound remaining measured up to 2 hrs; assay type: ADME, cell-free; details: read-out: Stability
# HUVEC [13] = assay: Inhibition of tube formation in HUVEC at 50 to 100 nM measured up to 12 hrs by calcein-AM staining based fluorescence microscopic analysis; assay type: functional, cell-based; details: Homo sapiens, dose 50-100 nM, time hrs <=12
# HUVEC [14] = assay: Effect on cell cycle distribution in HUVEC cells assessed as accumulation of cells in G2 phase at 250 nM measured after 24 hrs by propidium iodide staining based flow cytometry analysis (Rvb= 1.67%); assay type: functional, Homo sapiens
# Tubulin (Homo sapiens) [15] = biological target: T1, Tubulin (Homo sapiens) (UniProt P68371+Q9H4B7+P0DPH7+P68366+Q13509+Q71U36+P04350+Q3ZCM7+P07437+P68363+Q9BQE3+Q6PEY2+Q13885+Q9BVA1+Q9BUF5); assay: Induction of microtubule depolymerization in HUVEC assessed as assessed as microtubule network abnormalities at 250 nM incubated for 6 hrs by […] based confocal microscopic analysis; assay type: tissue-based
# [16] = Metabolic stability in rat liver microsomes assessed as half life; assay type: ADME, Microsome
# [17] = Stability in culture media assessed as compound remaining at 250 to 500 nM measured up to 24 hrs; assay type: physicochemical; details: dose 250-500 nM, read-out: Stability
# [18] = Elimination rate constant in Sprague-Dawley rat at 25 mg/kg, IM measured up to 48 hrs; assay type: ADME, organism-based; details: in vivo
# Mus musculus [19] = species: Mus musculus; assay: Antiangiogenic activity in BALB/c mouse assessed as reduction in neovascularization by measuring reduction in hemoglobin concentration at 250 nM by matrigel plug assay; assay type: functional, organism-based
# [20] = Intrinsic clearance in rat liver microsomes; assay type: ADME, Microsome
# Tubulin (Homo sapiens) [21] = biological target: T1, Tubulin (Homo sapiens); assay: Induction of microtubule depolymerization in HUVEC assessed as assessed as plasma membrane blebbing at 250 nM incubated for 6 hrs by […] based confocal microscopic analysis; assay type: cell membranes
# HUVEC [22] = assay: Induction of F-actin depolymerization in HUVEC assessed as loss of endothelial cell morphology at 250 nM incubated for 6 hrs by phalloidin staining based confocal microscopic analysis; details: Homo sapiens
# MDA-MB-468 = assay: Antitumor activity against human MDA-MB-468 cells xenografted in CD-1 mouse assessed as reduction in tumor size at 30 mg/kg, iv administered once daily for 21 days; assay type: functional, organism-based; details: time 21.0 day
# HUVEC [23] = assay: Vascular disruptive effect in HUVEC cells assessed as reduction in tube formation at 250 nM measured after 3 to 24 hrs by calcein-AM staining based fluorescence microscopic analysis; assay type: functional, cell-based; details: Homo sapiens, time 3-24 hrs
# HUVEC [24] = assay: Induction of F-actin depolymerization in HUVEC assessed as plasma membrane blebbing at 250 nM incubated for 6 hrs by phalloidin staining based confocal microscopic analysis; assay type: cell membranes; details: Homo sapiens
# [25] = Metabolic stability in rat liver microsomes assessed as dissociation rate constant; assay type: ADME, Microsome
# [26] = Clearance in Sprague-Dawley rat at 25 mg/kg, IM measured up to 48 hrs; assay type: ADME, organism-based; details: in vivo
# [27] = biological target: Vascular endothelial growth factor receptor 2 (Homo sapiens) (UniProt P35968); assay: Inhibition of VEGFR2 phosphorylation in VEGF-induced HUVEC cells pretreated at 0.5 to 20 uM by Western blot analysis; assay type: cell-based; details: dose 0.5-20 µM
# Vascular endothelial growth factor receptor 2 (Homo sapiens), sequence (P35968 whole entry): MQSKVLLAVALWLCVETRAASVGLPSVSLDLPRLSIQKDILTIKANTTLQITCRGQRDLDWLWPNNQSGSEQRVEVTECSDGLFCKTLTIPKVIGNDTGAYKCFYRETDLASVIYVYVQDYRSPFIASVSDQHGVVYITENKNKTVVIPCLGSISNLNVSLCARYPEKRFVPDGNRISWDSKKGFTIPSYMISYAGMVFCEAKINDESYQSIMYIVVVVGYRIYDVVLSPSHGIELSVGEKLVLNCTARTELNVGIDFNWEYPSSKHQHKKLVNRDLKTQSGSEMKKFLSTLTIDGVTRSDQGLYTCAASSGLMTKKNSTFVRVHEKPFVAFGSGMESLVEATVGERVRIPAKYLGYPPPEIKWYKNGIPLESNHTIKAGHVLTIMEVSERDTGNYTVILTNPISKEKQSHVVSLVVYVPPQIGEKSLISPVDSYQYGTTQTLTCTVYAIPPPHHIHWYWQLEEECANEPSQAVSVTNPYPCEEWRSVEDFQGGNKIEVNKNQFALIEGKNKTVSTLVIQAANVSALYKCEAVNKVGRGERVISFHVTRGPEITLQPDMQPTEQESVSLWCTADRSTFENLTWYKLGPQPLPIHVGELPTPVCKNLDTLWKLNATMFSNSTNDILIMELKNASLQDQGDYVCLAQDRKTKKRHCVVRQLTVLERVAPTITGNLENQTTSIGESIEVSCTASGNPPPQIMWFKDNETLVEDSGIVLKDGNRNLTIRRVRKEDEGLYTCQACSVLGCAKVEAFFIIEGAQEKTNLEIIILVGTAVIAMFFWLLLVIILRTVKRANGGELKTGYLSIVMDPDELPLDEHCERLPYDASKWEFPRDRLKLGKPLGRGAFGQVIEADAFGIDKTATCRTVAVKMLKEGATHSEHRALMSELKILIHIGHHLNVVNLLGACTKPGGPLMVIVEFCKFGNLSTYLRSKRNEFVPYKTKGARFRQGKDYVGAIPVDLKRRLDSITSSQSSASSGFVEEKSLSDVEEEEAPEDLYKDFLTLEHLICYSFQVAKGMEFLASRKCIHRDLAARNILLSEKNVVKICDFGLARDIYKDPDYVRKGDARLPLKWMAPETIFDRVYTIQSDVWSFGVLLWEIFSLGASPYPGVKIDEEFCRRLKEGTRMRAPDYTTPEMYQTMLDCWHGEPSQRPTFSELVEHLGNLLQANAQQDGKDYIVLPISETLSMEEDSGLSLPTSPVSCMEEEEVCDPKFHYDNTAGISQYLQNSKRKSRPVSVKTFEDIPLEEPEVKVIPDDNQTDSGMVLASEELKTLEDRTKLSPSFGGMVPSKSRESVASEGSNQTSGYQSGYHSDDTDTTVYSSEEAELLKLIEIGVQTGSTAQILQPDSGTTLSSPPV
# HUVEC [28] = assay: Downregulation of ICAM-1 expression in HUVEC cells at 250 nM measured after 6 hrs by Western blot analysis; assay type: functional, cell-based; details: Homo sapiens
# HUVEC [29] = assay: Downregulation of p-Akt expression in HUVEC cells at 250 nM measured after 6 hrs by Western blot analysis; assay type: functional, cell-based; details: Homo sapiens
# HUVEC [30] = assay: Antiangiogenic activity against HUVEC cells assessed as inhibition of cell migration measured after 24 hrs by scratch wound closure assay; assay type: functional, cell-based; details: Homo sapiens
# Tubulin (Homo sapiens) [31] = biological target: T1, Tubulin (Homo sapiens); assay: Induction of microtubule depolymerization in HUVEC assessed as assessed as loss of endothelial cell morphology at 250 nM incubated for 6 hrs by […] based confocal microscopic analysis
# HUVEC [32] = assay: Cytotoxicity against HUVEC assessed as reduction in cell proliferation at 250 nM measured after 24 hrs by MTT assay; assay type: cell-based; details: human, 0.25 µM
# HUVEC [33] = assay: Antiangiogenic activity against VEGF-stimulated HUVEC cells assessed as reduction in endothelial sprouting tubules incubated for 3 days by Cytodex-3 beads based inverted microscopic analysis; assay type: functional, cell-based; details: Homo sapiens, dose 250-1000 nM, time 3.0 day
# [34] = Cmax in Sprague-Dawley rat at 25 mg/kg, IM measured up to 48 hrs; assay type: ADME, organism-based; parameters: route intramuscular, dose 25 mg/kg, time <=48; details: in vivo
# Mus musculus [35] = species: Mus musculus; assay: Antiangiogenic activity in BALB/c mouse assessed as assessed as reduction in CD31-positive microvessel density in ear tissue at 250 nM measured after 6 days by fluorescence microscopic analysis; assay type: functional, organism-based; details: time 6.0 day
# HUVEC [36] = assay: Downregulation of p-Src expression in HUVEC cells at 250 nM measured after 6 hrs by Western blot analysis; assay type: functional, cell-based; details: Homo sapiens
# HUVEC [37] = assay: Antiangiogenic activity against HUVEC cells assessed as inhibition of cell migration measured after 12 hrs by scratch wound closure assay relative to control; assay type: functional, Homo sapiens
# [38] = Half life in Sprague-Dawley rat at 25 mg/kg, IM measured up to 48 hrs; assay type: ADME, organism-based; details: in vivo
compound,measurement,setting,value
COc1cccc(Nc2sc3ccccc3c2C#N)c1,Activity,HUVEC [1],81%
N#Cc1c(Nc2ccc(Cl)cc2)sc2ccccc12,Activity,HUVEC [1],45%
same,Activity,HUVEC [2],45%
COc1ccc(Nc2sc3c(OC)cc(OC)cc3c2C#N)cc1,Activity,HUVEC [1],63%
N#Cc1c(Nc2ccccc2)sc2cc3c(cc12)OCO3,Activity,HUVEC [1],75%
N#Cc1c(Nc2ccccc2)sc2cc3ccccc3cc12,Activity,HUVEC [1],50%
COc1c2c(cc3c(C#N)c(Nc4ccccc4)sc13)OCO2,Activity,HUVEC [1],81%
COc1ccc(Nc2sc3ccccc3c2C#N)cc1,Activity,HUVEC [1],57%
CCN(CC)CCNC(=O)c1c(C)[nH]c(/C=C2\C(=O)Nc3ccc(F)cc32)c1C [SUNITINIB],Activity,HUVEC [3],43%
same,Activity,Mus musculus [4],Active
same,Activity,Mus musculus [5],Active
CC(=O)N(c1ccc(O)cc1)c1sc2ccccc2c1C#N,Activity,HUVEC [1],36%
same,Activity,HUVEC [2],59%
N#Cc1c(Nc2ccc(F)cc2)sc2ccccc12,Activity,HUVEC [1],25%
same,Activity,HUVEC [2],58%
N#Cc1c(Nc2cccc(O)c2)sc2ccccc12,Activity,HUVEC [1],0%
same,Activity,HUVEC [2],60%
N#Cc1c(Nc2ccc(N)cc2)sc2ccccc12,Activity,HUVEC [1],1%
same,Activity,HUVEC [2],51%
COc1cc2sc(Nc3cccc(O)c3)c(C#N)c2cc1OC,Activity,HUVEC [1],11%
same,Activity,HUVEC [2],67%
COc1cc2sc(Nc3ccccc3)c(C#N)c2cc1OC,Activity,HUVEC [1],77%
N#Cc1c(Nc2ccccc2O)sc2ccccc12,Activity,HUVEC [1],19%
same,Activity,HUVEC [2],68%
N#Cc1c(Nc2ccc(O)cc2)sc2ccccc12,Activity,HUVEC [6],Active
same,remaining at 2 h,[7],89%
same,remaining at 2 h,[8],90.4%
same,Tmax,[9],0.5 h
same,Activity,HUVEC [1],25%
same,inhibition,HUVEC [10],Dose-Dependent Effect
same,Vz,[11],107.16 L/kg
same,remaining at 2 h,[12],89.1%
same,inhibition,HUVEC [13],inactive
same,Activity,HUVEC [14],1.58%
same,Activity,Tubulin (Homo sapiens) [15],Active
same,half-life,[16],1.87 h
same,"remaining at 24 h, up to 0.5 µM",[17],78.3%
same,k el at 48 h,[18],3.47e-05 s⁻¹
same,Activity,Mus musculus [19],Active
same,CLH,[20],0.74 L/h
same,Activity,Tubulin (Homo sapiens) [21],Active
same,Activity,HUVEC [22],Active
same,Activity,MDA-MB-468,Active
same,Activity,HUVEC [23],Active
same,Activity,HUVEC [24],Active
same,Kdiss,[25],0.000103 s⁻¹
same,CL/F,[26],205 mL/min/kg
same,inhibition,[27],Active
same,Activity,HUVEC [28],inactive
same,Activity,HUVEC [2],2%
same,Activity,HUVEC [29],Active
same,inhibition,HUVEC [30],inactive
same,Activity,Tubulin (Homo sapiens) [31],Active
same,Activity,HUVEC [32],Non-Toxic
same,Activity,HUVEC [33],Dose-Dependent Effect
same,Cmax,[34],442 ng/mL
same,Activity,Mus musculus [35],Active
same,Activity,HUVEC [36],Active
same,inhibition (INH),HUVEC [37],80%
same,half-life,[38],6 h
N#Cc1c(Nc2ccccc2)sc2ccccc12,Activity,HUVEC [1],81%
COc1cc2sc(Nc3ccc(O)cc3)c(C#N)c2cc1OC,Activity,HUVEC [1],0%
same,Activity,HUVEC [2],73%
N#Cc1c(Nc2ccc(C(F)(F)F)cc2)sc2ccccc12,Activity,HUVEC [1],24%
same,Activity,HUVEC [2],65%
N#Cc1c(Nc2ccc([N+](=O)[O-])cc2)sc2ccccc12,Activity,HUVEC [1],8%
same,Activity,HUVEC [2],37%
